Source: patent US20150313927A1, “AN EDIBLE COMPOSITION COMPRISING RESVERATROL AND FLAVONOID MONOGLUCOSIDE” (Conopco, Inc., d/b/a UNILEVER, priority 2012, published 2015)
Values joined by “and” are separate entries in the source; they are usually repeats but may differ in a detail not shown here. Equal values may be shown once.

Key:
[1] = molecular target: T1, Human Lactase Phloridzin Hydrolase (hLPH) (Homo sapiens, UniProt P09848); experiment: hLPH enzyme assay (glucoside hydrolysis by LPH extract); format: in vitro ADME; conditions: for Resistance to hydrolysis - % Q4G: resistance to LPH hydrolysis relative to quercetin-4-glucoside (Q4G); for μM substrate hydrolysed/hr: glucoside 1.0 mM, 10% LPH extract (Caco2), 1 hour, 37° C., pH 6.0
T1 construct: at confluence for 21 days prior to extraction with a Novagen ProteoExtract™ trans-membrane Protein Extraction kit; endogenous in cells; host or cells: Caco-2 cells (ATCC), 21 days at confluence; membrane protein extract desalted over G-25 Sephadex
T1 sequence (P09848 869-1927): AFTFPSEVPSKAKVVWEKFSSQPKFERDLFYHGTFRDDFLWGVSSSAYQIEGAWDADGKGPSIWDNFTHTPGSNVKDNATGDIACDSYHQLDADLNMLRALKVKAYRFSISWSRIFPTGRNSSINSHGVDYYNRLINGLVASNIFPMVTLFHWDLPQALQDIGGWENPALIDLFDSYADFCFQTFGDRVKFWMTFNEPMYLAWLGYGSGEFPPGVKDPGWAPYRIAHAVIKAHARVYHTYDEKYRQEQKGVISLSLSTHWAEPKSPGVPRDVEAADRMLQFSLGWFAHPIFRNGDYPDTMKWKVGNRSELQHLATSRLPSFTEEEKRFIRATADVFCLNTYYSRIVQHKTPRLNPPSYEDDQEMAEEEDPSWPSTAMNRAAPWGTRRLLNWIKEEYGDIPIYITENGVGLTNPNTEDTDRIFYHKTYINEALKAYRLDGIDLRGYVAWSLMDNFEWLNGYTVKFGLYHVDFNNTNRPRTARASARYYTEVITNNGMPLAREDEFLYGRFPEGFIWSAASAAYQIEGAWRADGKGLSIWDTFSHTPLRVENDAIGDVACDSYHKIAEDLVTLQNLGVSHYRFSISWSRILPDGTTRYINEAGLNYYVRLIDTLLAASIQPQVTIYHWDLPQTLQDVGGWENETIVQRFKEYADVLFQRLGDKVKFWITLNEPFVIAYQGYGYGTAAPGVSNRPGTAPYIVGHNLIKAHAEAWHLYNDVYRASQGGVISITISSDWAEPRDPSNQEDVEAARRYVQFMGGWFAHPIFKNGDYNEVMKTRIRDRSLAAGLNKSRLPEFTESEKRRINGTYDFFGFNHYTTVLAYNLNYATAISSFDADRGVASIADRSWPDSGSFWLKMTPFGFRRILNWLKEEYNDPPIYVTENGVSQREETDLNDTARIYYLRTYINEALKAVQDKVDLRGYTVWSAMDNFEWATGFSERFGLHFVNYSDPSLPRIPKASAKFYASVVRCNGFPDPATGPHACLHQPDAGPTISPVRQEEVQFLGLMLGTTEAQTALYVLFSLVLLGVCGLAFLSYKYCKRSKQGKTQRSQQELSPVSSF
Description: Extracts were stored at −80° C. in 50 ul aliquots. Prior to use extracts were semi-purified, removing low molecular weight interfering components by passing through a small G-25 Sephadex 50-100 μl spin-column (Roche or ThermoFisher Scientific). 10 μl of semi-purified LPH extract was added to 90 μl of glucoside (1.0 mM final concentration) in 0.1 M maleate (Sigma) buffer, pH 6.0 and incubated for 60 minutes at 37° C. The reaction was terminated by addition of 200 μl 2M Tris (Sigma), pH 8.0. […] This allowed a full recovery of glucose which was measured using the Amplex® Red Glucose/Glucose Oxidase Assay. […] Fluorescence was read on a SpectraMax Gemini EM SN plate reader (Molecular Devices) (excitation. 530 nm and emission at 590 nm).

[2] = tested on: SGLT1; experiment: Glucose transport inhibitor cell screening assay, 5 mM D-glucose for 15 minutes; conditions: for % Glucose Transport inhibition 5 mM / SGLT1 inhibitory activity (in words): 5 mM D-glucose; for % Glucose Transport inhibition 5 mM: 15 minutes, actives at 300 uM, differentiated Caco-2 monolayer; for SGLT1 inhibitory activity (in words): Caco-2 cell model; for Class (assigned class of transporter inhibited): based on inhibition at 5 mM and 25 mM D-glucose
[3] = molecular target: T2, GLUT2 (Homo sapiens, UniProt P11168); experiment: Glucose transport inhibitor cell screening assay, 25 mM D-glucose for 30 minutes; conditions: for % Glucose Transport inhibition 25 mM / GLUT2 inhibition (in words): 25 mM D-glucose; for % Glucose Transport inhibition 25 mM: 30 minutes, actives at 150 uM, differentiated Caco-2 monolayer; for inhibition at 25000 µM: Caco-2, read-out: % Glucose Transport inhibition 25 mM; for GLUT2 inhibition (in words): Caco-2 cell model
T2 sequence (P11168 1-524): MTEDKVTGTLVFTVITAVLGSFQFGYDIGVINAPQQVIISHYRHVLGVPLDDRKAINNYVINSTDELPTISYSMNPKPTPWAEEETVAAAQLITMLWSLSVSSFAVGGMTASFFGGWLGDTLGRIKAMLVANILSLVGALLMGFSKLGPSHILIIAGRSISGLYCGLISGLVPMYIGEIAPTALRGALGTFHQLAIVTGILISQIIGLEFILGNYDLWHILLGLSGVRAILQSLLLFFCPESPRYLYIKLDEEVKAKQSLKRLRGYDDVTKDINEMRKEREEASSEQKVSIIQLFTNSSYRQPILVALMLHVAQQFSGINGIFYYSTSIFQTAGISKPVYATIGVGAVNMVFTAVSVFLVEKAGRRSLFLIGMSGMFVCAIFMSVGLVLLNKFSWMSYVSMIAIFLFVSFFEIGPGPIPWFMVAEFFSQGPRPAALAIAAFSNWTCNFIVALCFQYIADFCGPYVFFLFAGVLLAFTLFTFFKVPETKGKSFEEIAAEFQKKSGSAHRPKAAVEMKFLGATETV

[4] = tested on: differentiated Caco-2 monolayers; experiment: Glucose transport cell model, total cumulative glucose transport (synergy); format: cell-based, Human; conditions: active only in 25 mM D-glucose for remaining 45 minutes (NC Pz 300 μM, NC R 75 μM)

Which “Resistance to hydrolysis - % Q4G” value ([1]; listed as D8G) does the source give for O=c1c(-c2ccc(O)cc2)coc2c([C@@H]3O[C@H](CO)[C@@H](O)[C@H](O)[C@H]3O)c(O)ccc12 [Daidzein-8-C-glucoside] here?
The value was 82.19%.

How did the “% Glucose Transport inhibition 5 mM” value [2] turn out when O=c1c(-c2ccc(O)cc2)coc2cc(O[C@@H]3O[C@H](CO)[C@@H](O)[C@H](O)[C@H]3O)ccc12 [Daidzein-7-glucoside] was run?
The value was 35.03%.

And the “SGLT1 inhibitory activity (in words)” value [2]?
Its value is “inhibition of SGLT1”.

What about the “Class (assigned class of transporter inhibited)” value [2] of the same molecule?
The value was “SGLT1”.

And the “% Glucose Transport inhibition 25 mM” value [3]?
The value was 7.23%.

Which results are given for COc1cc(-c2[o+]c3cc(O)cc(O)c3cc2O)cc(OC)c1O [Malvidin]?
% Glucose Transport inhibition 5 mM [2]: 14.21%; inhibition at 25000 µM [3]: 4.99%

Which “Resistance to hydrolysis - % Q4G” value ([1]; listed as K3G) does the source give for O=c1c(O[C@@H]2O[C@H](CO)[C@@H](O)[C@H](O)[C@H]2O)c(-c2ccc(O)cc2)oc2cc(O)cc(O)c12 [Kaempferol 3-O-glucoside] here?
The value was 92.8% and 92.78%.

How did the “% Glucose Transport inhibition 25 mM” value [3] turn out when O=C1C[C@@H](c2ccc(O)c(O)c2)Oc2cc(O[C@@H]3O[C@H](CO)[C@@H](O)[C@H](O)[C@H]3O)cc(O)c21 [Eriodictyol-7-O-glucoside] was run?
Its value is 4.98%.

How did the “% Glucose Transport inhibition 25 mM” value [3] turn out when COc1cc(-c2[o+]c3cc(O)cc(O)c3cc2O[C@@H]2O[C@H](CO)[C@H](O)[C@H](O)[C@H]2O)cc(OC)c1O [Malvidin 3-O-Galactoside] was run?
Its value is 10.41%.

What does the source list for O=C(CCc1ccc(O)cc1)c1c(O)cc(O)cc1O[C@@H]1O[C@H](CO)[C@@H](O)[C@H](O)[C@H]1O [Phloridzin, reference compound]?
total Cumulative Glucose Transport (tCGT), active added later with high D-glucose [4]: no inhibition; μM substrate hydrolysed/hr [1]: 0.507 μM substrate hydrolysed/hr; Resistance to hydrolysis - % Q4G [1]: at least 20%; Resistance to hydrolysis - % Q4G ([1]; listed as PLZ): 83.64%; inhibition at 25000 µM [3]: 18.4%

With O=C1CC(c2ccc(O)cc2)Oc2cc(O[C@@H]3O[C@H](CO)[C@@H](O)[C@H](O)[C@H]3O)cc(O)c21 (stereo partly drawn) [Naringenin-7-O-glucoside] as the molecule, how does the “Resistance to hydrolysis - % Q4G” value ([1]; listed as N7G) read?
The value was 49.5% and 49.52%.

What about the “% Glucose Transport inhibition 25 mM” value [3] of the same molecule?
Its value is 0.06%.

O=C(O)/C=C/c1ccc(O)c(O)c1 [caffeic acid] was tested. Which “SGLT1 inhibitory activity (in words)” value [2] did it give?
Its value is “no inhibitory activity”.

What about the “GLUT2 inhibition (in words)” value [3] of the same molecule?
Its value is “no inhibitory activity”.

For Oc1ccc(-c2[o+]c3cc(O)cc(O)c3cc2O)cc1 [Pelargonidin], which “% Glucose Transport inhibition 5 mM” value [2] is on record?
Its value is 4.07%.

What about the inhibition at 25000 µM [3] of the same molecule?
The inhibition at 25000 µM was 16.5%.

Which results are given for COc1cc(/C=C/c2ccc(O)cc2)cc(OC)c1 [Pterostilbene]?
% Glucose Transport inhibition 5 mM [2]: 18.44%; inhibition at 25000 µM [3]: 8.26%

For O=c1cc(-c2ccc(O)c(O)c2)oc2cc(O[C@@H]3O[C@H](CO)[C@@H](O)[C@H](O)[C@H]3O)cc(O)c12 [Luteolin-7-glucoside], which μM substrate hydrolysed/hr [1] is on record?
The μM substrate hydrolysed/hr was 0.814 μM substrate hydrolysed/hr.

And the “Resistance to hydrolysis - % Q4G” value ([1]; listed as L7G)?
Its value is 73.72%.

And the “% Glucose Transport inhibition 5 mM” value [2]?
The value was 44.09%.

And the “SGLT1 inhibitory activity (in words)” value [2]?
Its value is “inhibition of SGLT1”.

What about the “Class (assigned class of transporter inhibited)” value [2] of the same molecule?
Its value is “SGLT1”.

And the “% Glucose Transport inhibition 25 mM” value [3]?
Its value is 17.03%.

With O=C(/C=C/c1ccc(O)c(O)c1)O[C@H](Cc1ccc(O)c(O)c1)C(=O)O [rosmarinic acid] as the molecule, how does the “SGLT1 inhibitory activity (in words)” value [2] read?
Its value is “no inhibitory activity”.

What about the “GLUT2 inhibition (in words)” value [3] of the same molecule?
Its value is “no inhibitory activity”.

Which “Resistance to hydrolysis - % Q4G” value ([1]; listed as P3G) does the source give for OC[C@H]1O[C@@H](Oc2cc3c(O)cc(O)cc3[o+]c2-c2ccc(O)cc2)[C@H](O)[C@@H](O)[C@@H]1O [Pelargonidin-3-glucoside] here?
The value was 58.94%.

For OC[C@H]1O[C@@H](Oc2ccc(O)cc2)[C@H](O)[C@@H](O)[C@@H]1O [arbutin], which “SGLT1 inhibitory activity (in words)” value [2] is on record?
Its value is “lack of SGLT1 inhibitory activity”.

Which “Class (assigned class of transporter inhibited)” value [2] does the source give for Oc1cc(O)c2cc(O)c(-c3cc(O)c(O)c(O)c3)[o+]c2c1 [Delphinindin] here?
Its value is “None”.

What about the “% Glucose Transport inhibition 25 mM” value [3] of the same molecule?
Its value is 15.86%.

Which “% Glucose Transport inhibition 25 mM” value [3] does the source give for COc1cc(-c2[o+]c3cc(O)cc(O)c3cc2O[C@@H]2O[C@H](CO)[C@@H](O)[C@H](O)[C@H]2O)cc(OC)c1O [Malvidin-3-O-glucoside] here?
Its value is 10.91%.

How did the “% Glucose Transport inhibition 25 mM” value [3] turn out when O=c1cc(-c2ccc(O)cc2)oc2cc(OC3O[C@H](CO)[C@@H](O)[C@H](O)[C@H]3O)cc(O)c12 (stereo partly drawn) [Apigenin-7-glucoside] was run?
Its value is 12.81%.

With Oc1cc(O)cc(/C=C/c2ccc(O)c(O)c2)c1 [Piceatannol] as the molecule, how does the “% Glucose Transport inhibition 5 mM” value [2] read?
The value was 89.28%.

And the “Class (assigned class of transporter inhibited)” value [2]?
The value was “GLUT2 (GLUT2 having >20% inhibition at both 5 mM & 25 mM)”.

And the inhibition at 25000 µM [3]?
The inhibition at 25000 µM was 32.7%.

With O=c1c(O)c(-c2ccc(O)cc2)oc2cc(O[C@@H]3O[C@H](CO)[C@@H](O)[C@H](O)[C@H]3O)cc(O)c12 [Kaempferol 7-O-glucoside] as the molecule, how does the μM substrate hydrolysed/hr [1] read?
The μM substrate hydrolysed/hr was 0.618 μM substrate hydrolysed/hr.

What about the “Resistance to hydrolysis - % Q4G” value ([1]; listed as K7G) of the same molecule?
Its value is 80.05%.

What about the “% Glucose Transport inhibition 5 mM” value [2] of the same molecule?
The value was 43.89%.

And the “SGLT1 inhibitory activity (in words)” value [2]?
Its value is “inhibition of SGLT1”.

And the “Class (assigned class of transporter inhibited)” value [2]?
Its value is “SGLT1”.

And the “% Glucose Transport inhibition 25 mM” value [3]?
The value was 14.42%.

How did the “total Cumulative Glucose Transport (tCGT), active added later with high D-glucose” value [4] turn out when Oc1ccc(C=Cc2cc(O)cc(O)c2)cc1 [Resveratrol] was run?
The value was “significant reduction”.

What about the “% Glucose Transport inhibition 5 mM” value [2] of the same molecule?
Its value is 76.07%.

What about the “Class (assigned class of transporter inhibited)” value [2] of the same molecule?
The value was “GLUT2 (GLUT2 having >20% inhibition at both 5 mM & 25 mM)”.

And the inhibition at 25000 µM [3]?
Its inhibition at 25000 µM is 59%.

And the “GLUT2 inhibition (in words)” value [3]?
The value was “GLUT2 inhibitors”.

With Oc1cc(O)c2cc(O)c(-c3ccc(O)c(O)c3)[o+]c2c1 [Cyanidin] as the molecule, how does the “% Glucose Transport inhibition 5 mM” value [2] read?
Its value is 7.93%.

Which results are given for O=C(/C=C/c1ccc(O)c(O)c1)O[C@@H]1C[C@](O)(C(=O)O)C[C@@H](O)[C@H]1O [chlorogenic acid]?
SGLT1 inhibitory activity (in words) [2]: no inhibitory activity; GLUT2 inhibition (in words) [3]: no inhibitory activity

For O=c1cc(-c2ccc(O)cc2)oc2c([C@@H]3O[C@H](CO)[C@@H](O)[C@H](O)[C@H]3O)c(O)cc(O)c12 [Apigenin-8-C-glucoside], which μM substrate hydrolysed/hr [1] is on record?
Its μM substrate hydrolysed/hr is 0.685 μM substrate hydrolysed/hr.

What about the “Resistance to hydrolysis - % Q4G” value ([1]; listed as A8G) of the same molecule?
The value was 77.90%.

What about the “% Glucose Transport inhibition 5 mM” value [2] of the same molecule?
The value was 33.84%.

And the “SGLT1 inhibitory activity (in words)” value [2]?
The value was “inhibition of SGLT1”.

What about the “Class (assigned class of transporter inhibited)” value [2] of the same molecule?
The value was “SGLT1”.

And the “% Glucose Transport inhibition 25 mM” value [3]?
Its value is 5.76%.
